Results from US20150273027A1, “LIQUID PHARMACEUTICAL COMPOSITION OF FACTOR VII POLYPEPTIDE” (Novo Nordisk Healthcare AG, priority 2012, published 2015).
Numbering of substitutions follows the chain as printed. Values belong to the molecule of their own block, whether it stands above or below them.

Tests used:
SF-rFVIIa = biological target: T1, SF-rFVIIa (Homo sapiens, UniProt P08709); assay: Isothermal titration calorimetry (iTC200) binding to SF-rFVIIa; settings: for Kd: SF-rFVIIa
T1 construct: made in house
T1 sequence (P08709 213-466 limits assumed): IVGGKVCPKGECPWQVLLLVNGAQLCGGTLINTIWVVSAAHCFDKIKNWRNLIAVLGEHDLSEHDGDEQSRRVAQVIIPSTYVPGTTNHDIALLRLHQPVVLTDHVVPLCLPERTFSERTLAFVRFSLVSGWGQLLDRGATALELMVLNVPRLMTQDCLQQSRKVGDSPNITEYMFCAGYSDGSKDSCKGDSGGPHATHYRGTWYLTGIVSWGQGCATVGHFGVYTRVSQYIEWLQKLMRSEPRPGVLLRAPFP
T1 sequence (P08709 61-212 limits assumed): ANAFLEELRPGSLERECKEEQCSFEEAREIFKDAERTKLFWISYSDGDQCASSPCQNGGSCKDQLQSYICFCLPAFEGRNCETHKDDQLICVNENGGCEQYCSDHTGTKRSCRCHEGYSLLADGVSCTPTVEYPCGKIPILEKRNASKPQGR
Method: (§1) All proteases were dialyzed extensively in binding buffer: 10 mM HEPES pH 7.4, 150 mM NaCl, 0.005% v/v Surfactant P20, 5 mM CaCl2. All binding experiments were carried out in binding buffer unless otherwise indicated. The active site stabilizing agent set forth Formula I was dissolved in 50 mM Tris pH 8.0 to a final concentration of 9 mM giving a yellow colour. Isothermal titration calorimetry (iTC200, from GE healthcare) was chosen as the method of choice for determining binding parameters. Each iTC200 run involved filling the cell with the protease (approximately 200 μL) and the syringe with the active site stabilizing agent (approximately 40 μL). Temperature was set as required and the protease was allowed to equilibrate under given experimental conditions (approximately 10 minutes). Typically 17-20 injections (of 2-2.5 μL) of active site stabilizing agent into the cell, containing protease, were performed. The first injection was always of 0.2 μL and was discarded from the final data analysis. Stirring speed was set between 700-1000 rpm. Filter period for data collection was 5 sec with a high feedback mode setting. Each titration was spaced by 120 sec. Raw data was processed to set the baseline, integrate each peak to get a final isotherm. This isotherm was fit to a single-site model to yield Kd, stoichiometry (n), ΔH, and ΔS values to complete characterization of binding of active site stabilizing agents to a protease. Each binding experiment was repeated at least twice. Tables 14, 15 and 16 summarizes binding of active site binding agents to SF-FVIIa and Vatreptacog alfa under varying solution conditions as described below.

V158D/E296V/M298Q-FVIIa = biological target: T2, V158D/E296V/M298Q-FVIIa (Homo sapiens, UniProt P08709, E356V/M358Q/V218D); assay: Isothermal titration calorimetry (iTC200) binding to V158D/E296V/M298Q-FVIIa
T2 construct: made in house
T2 sequence (P08709 213-466 V218D/E356V/M358Q limits assumed): T1 sequence (P08709 213-466 limits assumed) with V6D, E144V, M146Q
T2 sequence (P08709 61-212 limits assumed): T1 sequence (P08709 61-212 limits assumed)
Method: as §1

rFVIIa = biological target: T3, rFVIIa (Homo sapiens, UniProt P08709); assay: Isothermal titration calorimetry (iTC200) binding to rFVIIa; settings: for Kd: binding buffer
T3 construct: made in house
T3 sequence (P08709 213-466 limits assumed): T1 sequence (P08709 213-466 limits assumed)
T3 sequence (P08709 61-212 limits assumed): T1 sequence (P08709 61-212 limits assumed)
Method: as §1

[1] = tested on: tail bleeding in F8-KO mice; assay: Tail bleeding in FVIII knock out (F8-KO) mice; format: in vivo; settings: dose 3 mg/kg i.v.
Description: The biological in vivo efficacy and potency of recombinant factor VIIa (rFVIIa) co-formulated with the active site stabilizing agent with Formula I in the molar ratio 1:[…]; 2.5; 5; […] in FVIII knock out (F8-KO) mice (Bi L, Sarkar R, Naas T, Lawler A M, Pain J, Shumaker S L et al. Further characterization of factor VIII-deficient mice created by gene targeting: RNA and protein studies. Blood 1996; 88:3446-).
Tail bleeding was initiated in Isofluran anesthetized F8-KO mice by transection of 4 mm of the tip of the tail 5 min after dosing rFVIIa, rFVIIa:active site stabilizing agent (1:1.75) or vehicle iv in a tail vein in the mice. Bleeding time and blood loss was measured for a 30 minutes period in 37° C. saline as described elsewhere (Elm T; Karpf D M; Øvlisen K; Pelzer H; Ezban M; Kjalke M; Tranholm M. Pharmacokinetics and pharmacodynamics of a new recombinant FVIII (N8) in haemophilia A mice. Haemophilia, 2012; 18 (1), 139-145). […] The bleeding time vs dose of rFVIIa and rFVIIa:active site stabilizing agent (1:1.75) show very similar dose response curves.
The in vivo effect of serum free recombinant FVIIa (SF-rFVIIa) and SF-rFVIIa co-formulated with the active site stabilizing agent set forth in Formula I in the molar ratio 1:2.5 was studied with the same design in the tail bleeding model in F8-KO mice at the concentration 1; 2.5; 5; 10 and 15 mg/kg. […]

[2] = iTC200, binding buffer pH 7.4, 20° C.

- Kd (SF-rFVIIa; [2]): 1.78 µM
Molecule: COc1cccc([C@H](C)NC(=O)CNC(=O)Nc2ccc(C(=N)N)cc2)c1 [Formula A, S-2-[3-(4-Carbamimidoylphenyl)ureido]-N-[1-(3-methoxyphenyl)-ethyl]-acetamide, reference compound]

- fold difference in binding at 20° C. and 37° C. (V158D/E296V/M298Q-FVIIa): 21 fold
- Kd (V158D/E296V/M298Q-FVIIa; binding buffer pH 7.4, 20° C.): 0.00218 µM
- Kd (V158D/E296V/M298Q-FVIIa; binding buffer, 37° C.): 0.046 µM
- Kd (V158D/E296V/M298Q-FVIIa; pH 5.5, 20° C.): 0.077 µM
- Kd (V158D/E296V/M298Q-FVIIa; pH 6.5, 20° C.): 0.009 µM
- Kd (V158D/E296V/M298Q-FVIIa; pH 8.5, 20° C.): 0.006 µM
- fold difference in binding at 20° C. and 37° C. (SF-rFVIIa; SF-FVIIa): 17 fold
- Kd (SF-rFVIIa; binding buffer, 37° C.): 0.334 µM
- Kd (SF-rFVIIa; [2]): 0.02 µM
- Kd (SF-rFVIIa; pH 5.5, 20° C.): 1.56 µM
- Kd (SF-rFVIIa; pH 6.5, 20° C.): 0.043 µM
- Kd (SF-rFVIIa; pH 8.5, 20° C.): 0.13 µM
- fold difference in binding at 20° C. and 37° C. (rFVIIa): 23 fold
- Kd (rFVIIa; 20° C.): 0.0129 µM
- Kd (rFVIIa; 37° C.): 0.296 µM
Molecule: N=C(N)c1ccc2[nH]c(-c3cc(CC(=O)N[C@@H](CC(=O)O)C(=O)O)cc(-c4cc(S(N)(=O)=O)ccc4O)c3O)nc2c1 [Formula I, (S)-2-{2-[5-(5-carbamimidoyl-1H-benzoimidazol-2-yl)-6,2′-dihydroxy-5′-sulfamoyl-biphenyl-3-yl]acetylamino}-succinic acid]

- Kd (SF-rFVIIa; [2]): 0.012 µM
Molecule: N=C(N)c1ccc2[nH]c(-c3cc(CC(=O)N[C@H](CC(=O)O)C(=O)O)cc(-c4cc(S(N)(=O)=O)ccc4O)c3O)nc2c1 [Formula II, (R)-2-{2-[5-(5-carbamimidoyl-1H-benzoimidazol-2-yl)-6,2′-dihydroxy-5′-sulfamoyl-biphenyl-3-yl]acetylamino}-succinic acid]

Molecule: Vatreptacog Alfa: FVIIa sequence variant, V158D/E296V/M298Q-FVII, three amino acids of the wild-type human sequence replaced
- In vivo tail bleeding as blood loss, mean [1]: 1207 nmol haemoglobin
